Assay results taken from patent publication US20120321584A1, “PROCESSES FOR PREPARING AMINE SALTS OF KMUP-3 AND USE THEREOF” (KAOHSIUNG MEDICAL UNIVERSITY, priority 2011, published 2012).

Assays:
[1] = tested on: isolated spontaneously beating right atrium; assay: Spontaneously beating right atrium, organ bath; format: cell-based, guinea-pig; details: 0.1-30 μM
Protocol: (§1) Organ bath experiments and tissue procurement. Guinea-pigs were killed by a blow on the head. Their hearts were quickly excised and trimmed of excess tissues. The atrium was carefully removed and placed at room temperature (20˜25° C.) in a Krebs solution of the following composition (mM): NaCl 113, KCl 4.8, CaCl2 2.2, KH2PO4 1.2, MgCl2 1.2, NaHCO3 25, dextrose 11.0; bubbled with a 95% O2+5% CO2 mixture, followed by separation of right and left atrium for subsequent experiments.
Spontaneously beating right atrium was dissected from the heart and mounted in a 10 ml organ bath with one end fixed and the other end connected to a force displacement transducer (Grass, Model FT03). The frequency of contraction was measured on a separate channel by a tachometer (Coulbourn, Model S77-26) connected to a high-speed videograph (Coulbourn, AT L19-69). These experiments were carried out at 32.5° C. in Krebs solution. The atria strip was pre-stretched to a baseline tension of 0.5 g and equilibrated for 90 min in aerated (95% O2+5% CO2) Krebs solution before the experimental protocols were initiated. The atria were then allowed a 30-60 min washout period to re-stabilize. KMUP-3 or KMUP-3 amine salt (0.1, 1.0, 10, 100 μM) were then cumulatively added to the organ bath. […]

PKCα = PKCα translocation of beating left atrium; format: cell-based, guinea-pig; details: KMUP-3 1 μM, left atrium cells
Protocol: To determine the effect of KMUP-3 or KMUP-3 amine salt on PKCa translocation, isolated left beating atrium was incubated with KMUP-3 or KMUP-3 amine salt for 30 minutes (0.1-10 μM). In brief, frozen left atrium was pulverized to a fine powder at the temperature of liquid nitrogen for preparation of cytosolic and membrane fractions. Isolated left atrium tissues were then homogenized by a sonicator (XL-2020, Heat Systems Ultrasonic, Plainview, N.Y., USA) at 4 in 1 ml of homogenization buffer containing 20 mM Tris-HCl (pH 7.5), 1 mM dithiothreitol (DTT), 5 mM EGTA, 2 mM EDTA, 0.5 mM PMSF, 20 μM leupeptin and 20 μM aprotinin. The cytosol fractions were obtained by collecting the supernatants after centrifuging the cells at 100,000×g for 45 minutes at 4. The pellets were resonicated in the homogenizing buffer with 1% Triton X-100, centrifuged again at 100,000×g for 45 minutes at 4, and the supernatants collected as membrane fractions. The extracts for cytosol and membrane fractions were denatured by heating at for 10 minutes in sampling buffer, and an aliquot containing 20 μg of total protein was subjected to a 10% SDS-polyacrylamide gel electrophoresis. […] Protein was detected with horseradish peroxidase (HRP) conjugated secondary antibody (BD Transduction Laboratories). […] The immunoreactive bands were detected by chemiluminescence (ECL) reagents (PerkinElmer Life Sciences, Inc).

[2] = tested on: phosphorylated eNOS (p-eNOS); assay: Phosphorylated eNOS expression in neonatal myocytes, Western blotting; format: cell-based, rat; details: neonatal rat cardiomyocytes
Protocol: (§2) eNOS/p-NOS and cAMP/cGMP in neonatal myocytes. To determine the role of the NO/cGMP-pathway in heart, neonatal rat myocyte protein was extracted followed by Western blotting to measure the expression of eNOS, phosphorylated eNOS (p-eNOS), cAMP, and cGMP (FIG. 14 A-14 B and FIG. 15 A-15 B). KMUP-3 increased eNOS and p-eNOS in neonatal rat cardiomyocytes and the effect was reduced by L-NAME (100 μM)-pretreatment (FIG. 14A and FIG. 14B). KMUP-3 increased both cAMP and cGMP.
(§3) Protein extraction and Western blotting analysis. Briefly, after incubation with test agents in an organ bath, isolated beating atrium was frozen and pulverized to a fine powder at the temperature of liquid nitrogen. Atrium powders were then homogenized in protein extraction reagent (Pierce Biotechnology, Inc., Rockford, Ill.) by sonication. The samples were sonicated 10 sec three times and centrifuged at 13,000 rpm at 4° C. for 30 min. The protein concentrations of supernatants were determined by using bovine serum albumin as the standard. […] The intensity of the bands was measured by densitometry. eNOS or phosphorylated eNOS were extracted from cell culture of neonatal myocytes, PA ring and aortic ring (2-3 mm) of rats and measured by Western blotting analysis.

ROCKII = ROCKII expression in aorta and pulmonary artery rings, Western blotting; format: cell-based, rat; details: aorta and pulmonary artery (PA) ring
Protocol: ROCKII expression and vascular resistance. To determine whether KMUP-3's ROCKII activity increased vascular resistance, aorta and pulmonary artery (PA) ring protein was extracted followed by Western blotting to measure the expression ROCKII and eNOS.
as §3, with “standard. The cell extracts were then boiled in a ratio of 4:1 with sample buffer (Tris 100 mM, pH 6.8; glycerol 20%, Sodium dodecyl sulfate (SDS) 4% and bromophenol blue 0.2%). Electrophoresis was performed using 10% SDS-PAGE and transferred to nitrocellulose membranes (Millipore Corp., Billerica, Mass.).” for “standard.”

[3] = tested on: electrically-stimulated left atria; assay: Electrically-stimulated beating left atrium, organ bath; format: cell-based, guinea-pig
Protocol: as §1
Quiescent left atria free of connective tissues were dissected and mounted in an organ bath under a resting tension of 0.5 g. Organs were bathed at 32.5° C. in aerated Krebs solution and electrically stimulated with 1 Hz at […] via two platinum electrodes placed at either side. The positive inotropic effect was measured by determining the cumulative concentration-response curves in the presence of KMUP-3 or KMUP-3 amine salt (0.1, 1.0, 10, 100 μM). To examine the possible involvement of NO and cAMP/cGMP in the action of KMUP-3 or KMUP-3 amine salt on electrically-stimulated beating atria, pre-incubated with a ROCK inhibitor Y27632 (1.0 μM), a β-adrenoceptor blocker propranolol (1.0 μM), eNOS inhibitors L-NAME (100 μM), 7-nitroindazole (100 μM) and 5-HT inhibitor ketanserin (1.0 μM) was performed for 15 min prior to the addition of KMUP-3 or KMUP-3 amine salt to measure the development of beating force and heart rate for 10 min.

eNOS = eNOS expression in neonatal myocytes, Western blotting; format: cell-based, rat; details: neonatal rat cardiomyocytes
Protocol: as §2, §3

Structure (SMILES): Cn1c(=O)c2c(ncn2CCN2CCN(c3ccc([N+](=O)[O-])cc3)CC2)n(C)c1=O [KMUP-3, 7-[2-[4-(4-nitrobenzene)piperazinyl]ethyl]-1,3-dimethylxanthine]
- Chronotropic effect (beating frequency) [1]: decreased
- Inotropic effect (contraction force) [1]: concentration-dependently increased
- Translocation of PKCα from cytosol to membrane (PKCα): significantly increased
- p-eNOS expression [2]: increased
- Vascular ROCKII expression (ROCKII): did not increase
- Left atria contractility ([3]; KMUP-3 10 μM): increased
- Potency for increasing contractility compared with milrinone ([3]; electrical stimulation 1 Hz, P<0.05): more potent than milrinone
- eNOS expression (eNOS): increased
